Tests used:
[1] = system: MDA-MB-231 tumors; assay: CAR-T/EC17 therapy, fixed dose and dose de-escalation, in mice bearing MDA-MB-231 tumors; assay type: in vivo; details: 4M5.3-CAR-T 30 million cells, EC17 de-escalation
Source text: The effect of EC17 dose de-escalation was investigated on the anti-tumor activity and the toxicity (body weight changes) of CAR-T therapy. Two different anti-fluorescein scFv were used for the CAR constructions (FIG. 1). The first construct of CAR contains the following domains: antiFL(FITC-E2)scFv-IgG4 hinge (CH2 (L235D, N297Q)-CH3)-CD28 TM-4-1BB-CD3z-T2A-EGFRt. The second construct of CAR contains the following domains: antiFL(FITC-4M5.3)scFv-IgG4 hinge (CH2 (L235D, N297Q)-CH3)-CD28 TM-4-1BB-CD3z-T2A-EGFRt. The nucleic acid sequence and amino acid sequence of the CAR of each construct are shown as SEQ ID NOS:1 to 4. Human T cells were isolated, activated and transduced with a lentiviral vector carrying the appropriate CAR gene. CD4+ T cells with the CAR-modification and CD8+ T cells with the CAR-modification were isolated and cultured separately in vitro for about 7 days. CD4+ CAR-T cells and CD8+ CAR-T cells were mixed at a 1:1 ratio before i.v. administration for animal studies.
The second construct 4M5.3-CAR (antiFL(FITC-4M5.3) scFv-IgG4 hinge (CH2 (L235D, N297Q)-CH3)-CD28 TM-4-1BB-CD3z-T2A-EGFRt) was also evaluated. Mice bearing MDA-MB-231 tumors (150-250 mm^3) were used for in vivo studies to evaluate 4M5.3-CAR-T cells. […]

[2] = system: target cells expressing surface folate receptor (OV90, SKOV3, IGROV1, HOS-FRα, MDA-MB-231); assay: Two day co-culture target cell kill assay (Annexin V); assay type: cell-based, human; details: 100 nM EC17 30 min pre-treatment, E:T 1:1, two days
Description: On day −1, 100,000 target cells were plated in 2 ml of growth media per well of a 12-well tissue culture plate to allow target cells to adhere and recover. On day 0, wells which received EC17 bridge molecule were treated with EC17 at 100 nM for 30 min in the tissue culture incubator. Afterwards, all media was washed off and replaced with fresh growth media free of folate and EC17. During the EC17 incubation, T cells were harvested, counted and after EC17 treatment was completed, 100,000 E2 CAR T cells were directly added onto each well of target cells in a total of 3 ml of growth media at a ratio of 1:1 (E:T) and incubated for both 1 and 2 days under standard tissue culture humidified conditions of 37° C. at 5% CO2. One day co-culture conditions were used to assay E2 CAR T cell activation by target cells and two-day incubation was used to assay target cell death. […]
To confirm that E2 CAR T cell activation also translates to successful killing of the target cells we performed a two-day co-culture assay then looked at target cell (EGFR-CD3-) events via flow cytometry and determined the percentage of target cell staining with the apoptotic surface marker, Annexin V stain. […]

NC1=NC2N=CC(CNc3ccc(C(=O)N[C@@H](CCC(=O)NCCNC(=S)Nc4ccc(-c5c6ccc(=O)cc-6oc6cc(O)ccc56)c(C(=O)O)c4)C(=O)O)cc3)=NC2C(=O)N1 (some centres unmarked) [EC17, FA-(γ)-ethylenediamine-FITC]
EC17 dose dependence of anti-tumor activity and body weight loss [1]: dose dependent anti-tumor activity and body weight loss | requirement of EC17 binding for target cell kill [2]: required for cell kill
